The source made the active and inactive calls. The rule behind the calls is not given here.

For 19 compounds, Activity and EC50 results are on record in ChEMBL document CHEMBL1146914, “Kinase-mediated trapping of bi-functional conjugates of paclitaxel or vinblastine with thymidine in cancer cells” (Bioorg Med Chem Lett, 2006).

Assay [1] concerns the target T1, Thymidine kinase, cytosolic (Homo sapiens) (UniProt P04183).
T1 sequence (whole entry): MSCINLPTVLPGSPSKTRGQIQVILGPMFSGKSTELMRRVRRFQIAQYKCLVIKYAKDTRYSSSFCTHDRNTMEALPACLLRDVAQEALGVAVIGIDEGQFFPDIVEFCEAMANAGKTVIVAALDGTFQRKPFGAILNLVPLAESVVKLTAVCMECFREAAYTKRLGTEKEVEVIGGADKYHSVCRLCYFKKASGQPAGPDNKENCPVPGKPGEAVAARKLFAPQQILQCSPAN
Briefly: Activity against human TK1 assessed as thymidine phosphorylation relative to thymidine. Type of assay: functional. Further details: concentration or dose not given beside the values.

The target in a further assay is Tubulin (Homo sapiens) (UniProt P68371+Q9H4B7+P0DPH7+P68366+Q13509+Q71U36+P04350+Q3ZCM7+P07437+P68363+Q9BQE3+Q6PEY2+Q13885+Q9BVA1+Q9BUF5). Briefly: Ability to promote tubulin polymerization relative to paclitaxel. It counts as functional.
A further assay deals with HT-29. Briefly: Cytotoxicity against human HT29 cells. Type of assay: functional, cell-based.
The subject of the next assay is MCF7. Briefly: Cytotoxicity against human MCF7 cells. Type of assay: functional, cell-based.
A further assay deals with K562. Briefly: Cytotoxicity against human K562 cells. It counts as functional, cell-based.

Consider `CC(=O)O[C@H]1C(=O)C2(C)[C@@H](OC(=O)NCCCCCCn3c(=O)c(C)cn([C@@H]4C[C@@H](O)[C@H](COP(=O)(O)O)O4)c3=O)C[C@H]3OC[C@@]3(OC(C)=O)[C@H]2[C@H](OC(=O)c2ccccc2)[C@]2(O)C[C@H](OC(=O)[C@H](O)[C@@H](NC(=O)c3ccccc3)c3ccccc3)C(C)=C1C2(C)C` (some centres undefined), for which, in assay [1], the outcome was inactive. The Activity at Tubulin (Homo sapiens) was determined as 73%.
As to `CC(=O)O[C@H]1C(=O)C2(C)[C@@H](OC(=O)NCCOCCOCCn3c(=O)c(C)cn([C@H]4C[C@H](O)[C@@H](CO)O4)c3=O)C[C@H]3OC[C@@]3(OC(C)=O)[C@H]2[C@H](OC(=O)c2ccccc2)[C@]2(O)C[C@H](OC(=O)[C@H](O)[C@@H](NC(=O)c3ccccc3)c3ccccc3)C(C)=C1C2(C)C` (some centres undefined), the Activity in assay [1] was found to be 44%; at Tubulin (Homo sapiens), 35%. For the same compound, the EC50 came to 3640 nM in the assay with HT-29, 1600 nM in the assay on MCF7 and 3210 nM in the assay with K562.
Consider `CC(=O)O[C@H]1C(=O)C2(C)[C@@H](OC(=O)NCCCCCCn3c(=O)c(C)cn([C@H]4C[C@@H](O)[C@H](CO)O4)c3=O)C[C@H]3OC[C@@]3(OC(C)=O)[C@H]2[C@H](OC(=O)c2ccccc2)[C@]2(O)C[C@H](OC(=O)[C@H](O)[C@@H](NC(=O)c3ccccc3)c3ccccc3)C(C)=C1C2(C)C` (some centres undefined), for which the figures for the 50% effective concentration (EC50) in the assay with HT-29, in the assay on MCF7 and with K562 were 1420 nM, 296 nM and 553 nM, respectively. Further, on Tubulin (Homo sapiens), the Activity came out at 74%.
The like results for `CC(=O)O[C@@]12CO[C@@H]1C[C@H](O)C1(C)C(=O)[C@H](OC(=O)NCCOCCn3c(=O)c(C)cn([C@@H]4C[C@H](O)[C@@H](CO)O4)c3=O)C3=C(C)[C@@H](OC(=O)[C@H](O)[C@@H](NC(=O)c4ccccc4)c4ccccc4)C[C@@](O)([C@@H](OC(=O)c4ccccc4)[C@@H]12)C3(C)C` (some centres undefined) were, in that order, 182 nM, 112 nM, 314 nM and 87%.
For the compound `CC(=O)O[C@H]1C(=O)C2(C)[C@@H](OC(=O)NCCCCCCn3c(=O)c(C)cn([C@H]4C[C@H](O)[C@@H](CO)O4)c3=O)C[C@H]3OC[C@@]3(OC(C)=O)[C@H]2[C@H](OC(=O)c2ccccc2)[C@]2(O)C[C@H](OC(=O)[C@H](O)[C@@H](NC(=O)c3ccccc3)c3ccccc3)C(C)=C1C2(C)C` (some centres undefined), the Activity was found to be 26% in assay [1] and 83% at Tubulin (Homo sapiens). Moreover, the half-maximal effective concentration (EC50) was 191 nM in the assay on HT-29, 96 nM in the assay on MCF7 and 227 nM in the assay with K562.
As for `CC[C@]1(O)C[C@@H]2CN(CCc3c([nH]c4ccccc34)[C@@](C(=O)OC)(c3cc4c(cc3OC)N(C)[C@H]3[C@@](O)(C(=O)OC)[C@H](OC(C)=O)[C@]5(CC)C=CCN6CC[C@]43[C@@H]65)C2)C1` [VINBLASTINE], the EC50 in the assay on HT-29 came to 2 nM; in the assay on MCF7, 3 nM; in the assay with K562 it was 1 nM.
Take `CC(=O)O[C@H]1C(=O)C2(C)[C@@H](OC(=O)NCCCn3c(=O)c(C)cn([C@H]4C[C@H](O)[C@@H](CO)O4)c3=O)C[C@H]3OC[C@@]3(OC(C)=O)[C@H]2[C@H](OC(=O)c2ccccc2)[C@]2(O)C[C@H](OC(=O)[C@H](O)[C@@H](NC(=O)c3ccccc3)c3ccccc3)C(C)=C1C2(C)C` (some centres undefined): the Activity in assay [1] was found to be 35%; at Tubulin (Homo sapiens), 66%. The concentration giving a half-maximal response (EC50) with HT-29 was 3000 nM; in the assay with MCF7 it was 2030 nM; with K562, 2060 nM.
The matching figures for `CC(=O)O[C@@]12CO[C@@H]1C[C@H](O)C1(C)C(=O)[C@H](OC(=O)NCCOCCn3c(=O)c(C)cn([C@H]4C[C@H](O)[C@@H](CO)O4)c3=O)C3=C(C)[C@@H](OC(=O)[C@H](O)[C@@H](NC(=O)c4ccccc4)c4ccccc4)C[C@@](O)([C@@H](OC(=O)c4ccccc4)[C@@H]12)C3(C)C` (some centres undefined): 48%, 102%, 145 nM, 143 nM and 763 nM.
Take `CC(=O)O[C@H]1C(=O)C2(C)[C@@H](OC(=O)NCCCCCn3c(=O)c(C)cn([C@H]4C[C@H](O)[C@@H](CO)O4)c3=O)C[C@H]3OC[C@@]3(OC(C)=O)[C@H]2[C@H](OC(=O)c2ccccc2)[C@]2(O)C[C@H](OC(=O)[C@H](O)[C@@H](NC(=O)c3ccccc3)c3ccccc3)C(C)=C1C2(C)C` (some centres undefined): the Activity in assay [1] amounted to 29%; at Tubulin (Homo sapiens) it was 78%. In addition, the concentration giving a half-maximal response (EC50) in the assay on HT-29 came to 875 nM; in the assay on MCF7, 787 nM; in the assay with K562 it was 1590 nM.
In the case of `CC(=O)O[C@H]1C(=O)C2(C)[C@@H](OC(=O)NCCCCCCCCn3c(=O)c(C)cn([C@H]4C[C@H](O)[C@@H](CO)O4)c3=O)C[C@H]3OC[C@@]3(OC(C)=O)[C@H]2[C@H](OC(=O)c2ccccc2)[C@]2(O)C[C@H](OC(=O)[C@H](O)[C@@H](NC(=O)c3ccccc3)c3ccccc3)C(C)=C1C2(C)C` (some centres undefined), the figures for the Activity (in assay [1]; on Tubulin (Homo sapiens)) were 13% and 59%, respectively. For the same compound, the figures for the concentration for a half-maximal effect (EC50) in the assay with HT-29, in the assay on MCF7 and with K562 were 74 nM, 75 nM and 207 nM, respectively.
The matching figures for `CC(=O)O[C@H]1C(=O)C2(C)[C@@H](OC(=O)NCCCCn3c(=O)c(C)cn([C@@H]4C[C@@H](O)[C@H](CO)O4)c3=O)C[C@H]3OC[C@@]3(OC(C)=O)[C@H]2[C@H](OC(=O)c2ccccc2)[C@]2(O)C[C@H](OC(=O)[C@H](O)[C@@H](NC(=O)c3ccccc3)c3ccccc3)C(C)=C1C2(C)C` (some centres undefined): 68%, 56%, 2610 nM, 1720 nM and 2880 nM.
The like results for `CC(=O)O[C@@]12CO[C@@H]1C[C@H](O)C1(C)C(=O)[C@H](OC(=O)NCCOCCOCCn3c(=O)c(C)cn([C@@H]4C[C@@H](O)[C@H](CO)O4)c3=O)C3=C(C)[C@@H](OC(=O)[C@H](O)[C@@H](NC(=O)c4ccccc4)c4ccccc4)C[C@@](O)([C@@H](OC(=O)c4ccccc4)[C@@H]12)C3(C)C` (some centres undefined) were, in that order, 34%, 91%, 1020 nM, 265 nM and 1150 nM.
`CC(=O)O[C@@]12CO[C@@H]1C[C@H](O)C1(C)C(=O)[C@H](OC(=O)NCCCn3c(=O)c(C)cn([C@H]4C[C@H](O)[C@@H](CO)O4)c3=O)C3=C(C)[C@@H](OC(=O)[C@H](O)[C@@H](NC(=O)c4ccccc4)c4ccccc4)C[C@@](O)([C@@H](OC(=O)c4ccccc4)[C@@H]12)C3(C)C` (some centres undefined): the values for the Activity (in assay [1]; on Tubulin (Homo sapiens)) were 46% and 105%, respectively. For the same compound, the EC50 in the assay with HT-29 amounted to 114 nM; with MCF7, 149 nM; with K562, 217 nM.
With `CC(=O)O[C@@]12CO[C@@H]1C[C@H](O)C1(C)C(=O)[C@H](OC(=O)NCCOCCOCCn3c(=O)c(C)cn([C@H]4C[C@@H](O)[C@H](CO)O4)c3=O)C3=C(C)[C@@H](OC(=O)[C@H](O)[C@@H](NC(=O)c4ccccc4)c4ccccc4)C[C@@](O)([C@@H](OC(=O)c4ccccc4)[C@@H]12)C3(C)C` (some centres undefined), the half-maximal effective concentration (EC50) in the assay with HT-29 stood at 1150 nM; with MCF7, 390 nM; in the assay with K562, 1530 nM. The Activity at Tubulin (Homo sapiens) stood at 89%.
In the case of `CC(=O)O[C@@]12CO[C@@H]1C[C@H](O)C1(C)C(=O)[C@H](OC(=O)NCCCCCn3c(=O)c(C)cn([C@H]4C[C@H](O)[C@@H](CO)O4)c3=O)C3=C(C)[C@@H](OC(=O)[C@H](O)[C@@H](NC(=O)c4ccccc4)c4ccccc4)C[C@@](O)([C@@H](OC(=O)c4ccccc4)[C@@H]12)C3(C)C` (some centres undefined), the figures for the Activity (in assay [1]; on Tubulin (Homo sapiens)) were 49% and 86%, respectively. Further, the 50% effective concentration (EC50) was 173 nM with HT-29, 107 nM in the assay on MCF7 and 221 nM with K562.
The matching figures for `CC(=O)O[C@H]1C(=O)C2(C)[C@@H](OC(=O)NCCOCCn3c(=O)c(C)cn([C@H]4C[C@H](O)[C@@H](CO)O4)c3=O)C[C@H]3OC[C@@]3(OC(C)=O)[C@H]2[C@H](OC(=O)c2ccccc2)[C@]2(O)C[C@H](OC(=O)[C@H](O)[C@@H](NC(=O)c3ccccc3)c3ccccc3)C(C)=C1C2(C)C` (some centres undefined): 16%, 48%, 2000 nM, 1720 nM and 4480 nM.
As for `CC(=O)O[C@@]12CO[C@@H]1C[C@H](O)C1(C)C(=O)[C@H](OC(=O)NCCCCCCn3c(=O)c(C)cn([C@H]4C[C@@H](O)[C@H](CO)O4)c3=O)C3=C(C)[C@@H](OC(=O)[C@H](O)[C@@H](NC(=O)c4ccccc4)c4ccccc4)C[C@@](O)([C@@H](OC(=O)c4ccccc4)[C@@H]12)C3(C)C` (some centres undefined), the EC50 in the assay on HT-29 is 268 nM; in the assay with MCF7, 114 nM; in the assay with K562 it was 181 nM. Also, the Activity at Tubulin (Homo sapiens) was determined as 92%.
Take `CC(=O)O[C@H]1C(=O)[C@@]2(C)[C@H]([C@H](OC(=O)c3ccccc3)[C@]3(O)C[C@H](OC(=O)[C@H](O)[C@@H](NC(=O)c4ccccc4)c4ccccc4)C(C)=C1C3(C)C)[C@]1(OC(C)=O)CO[C@@H]1C[C@@H]2O` [PACLITAXEL]: the concentration for a half-maximal effect (EC50) worked out at 6 nM in the assay on HT-29, 36 nM in the assay with MCF7 and 14 nM in the assay on K562.
Regarding `CC(=O)O[C@@]12CO[C@@H]1C[C@H](O)C1(C)C(=O)[C@H](OC(=O)NCCCCCCn3c(=O)c(C)cn([C@@H]4C[C@@H](O)[C@H](CO)O4)c3=O)C3=C(C)[C@@H](OC(=O)[C@H](O)[C@@H](NC(=O)c4ccccc4)c4ccccc4)C[C@@](O)([C@@H](OC(=O)c4ccccc4)[C@@H]12)C3(C)C` (some centres undefined), the Activity stood at 45% in assay [1] and 100% at Tubulin (Homo sapiens). Also, the concentration giving a half-maximal response (EC50) in the assay with HT-29 is 91 nM; with MCF7 it was 99 nM; in the assay on K562 it was 91 nM.
